Earlier results, collected in patent US20090005431A1, “SUBSTITUTED PYRROLIDINES” (AUSPEX PHARMACEUTICALS, INC., priority 2007, published 2009).

How the values were obtained:
Conditions in all cases: human recombinant muscarinic receptor subtypes; cited from earlier work
[1] = tested on: M3 receptor compared to M5
[2] = tested on: M3 receptor compared to M4
[3] = tested on: M3 receptor compared to M1
[4] = tested on: M3 receptor compared to M2

In the case of `NC(=O)C(c1ccccc1)(c1ccccc1)[C@@H]1CCN(CCc2ccc3c(c2)CCO3)C1` (stereo in doubt) [darifenacin, 2-{1-[2-(2,3-dihydro-benzofuran-5-yl)-ethyl]-pyrrolidin-3-yl}-2,2-diphenyl-acetamide], the “greater affinity for M3 compared to M5” value [1] is given as 12 fold, the “greater affinity for M3 compared to M4” value [2] is given as 59 fold and the “greater affinity for M3 compared to M1” value [3] is given as 9 fold. For the same compound, the “greater affinity for M3 compared to M2” value [4] was 59 fold.
